Values joined by “and” are separate entries in the source; they are usually repeats but may differ in a detail not shown here. Identical values can stand only once.
Test: Dual chamber in-vitro skin penetration test (iontophoresis vs passive)
Type: in vitro ADME, Porcine
Description: One type of skin penetration test can be implemented in-vitro by using excised swine skin membrane with two electrodes placed thereon, with one of the two being associated with a formulation including an active substance to be delivered by iontophoresis, as described, for example in: P. Glikfeld, C. Cullander, R. S. Hinz, and R. H. Guy, A new system for in vitro studies of iontophoresis, Pharm. Res. 5: 443-446 (1988) (hereinafter, the “dual chamber in-vitro test”). Description of the experimental design of an in-vitro skin penetration test is provided in Example No. 1. In a non-limiting way, any of the following parameters can be varied and tested with this model: voltage, current and current density, concentration of an active substance, pH, viscosity, concentration of a buffer, concentration of an electrolyte, concentration of a polymeric substance which is used to render certain rheological properties, conductivity, viscosity and adhesiveness. The influence of pore size and density of a substrate can also be assessed in a modified in-vitro skin penetration test. Delivery of the active substance into and through the skin will be determined as a function of the time of current passage.
Example No. 1 was devised to define, in a preclinical study, the optimal iontophoretic parameters for the delivery of an active substance contained in a cosmetic carrier into the skin, while minimizing systemic exposure.
In general, the active agent is formulated in a buffered, conducting solution, gel, cream, or any other optional cosmetically acceptable carrier. Competing ions are kept to a minimum. Iontophoresis is performed in vertical diffusion cells, in which the skin membrane separates the physically- and electrically-isolated anode and cathode chambers from the receptor phase, or in modified side-by-side cells of a newer design. The anode and receptor compartments contain physiologically-buffered saline at pH 7, while the cathode compartment is charged with the gel containing the active.
The skin membrane is from the porcine ear (Alternatively, human (cadaver) or nude mouse skin can be used). The skin is excised with a dermatome set to an approximate depth of 500 μm. The area of skin exposed in each electrode compartment is 0.64 cm^2.
The electrodes transmitting the electrical current are made of Ag/AgCl or graphite, prepared in a customary fashion. A constant current is passed between the electrodes and controlled by a custom-built power supply (Professional Design and Development Services, Berkeley, Calif.).
In each study, preparation, with electrical current (“Iontophoretic System”) and without electrical current (“Control”), are tested. Exposure period is 20-30 minutes. Six replicates are performed per experiment. Prior to each experiment, the viability and integrity of skin barrier function is checked via a measurement of transepidermal water loss (TEWL).
At the end of the exposure period, the entire receptor compartment is drained and the solution reserved for subsequent analysis of the active agent(s) (“Active”). The skin is removed, and the surfaces carefully cleaned and dried. Subsequently, the stratum corneum (“SC”) beneath the cathode chamber is removed by repeated 15 adhesive tape strippings (“TS”). The Active is extracted from the respective tapes and assayed to yield a total uptake of the compound into the SC. The remaining SC-stripped skin from beneath the cathode is then appropriately treated so as to recover the Active, which had crossed the SC barrier, during iontophoresis, and reached into the underlying epidermis/upper dermis. The Active is determined quantitatively using customary analytical procedures (e.g., HPLC, UV spectrum, GC, radiolabeled detection, etc.), as applicable.
Results of an In-Vitro Skin Penetration Test for Magnesium Ascorbyl Phosphate (MAP) Aqueous Solution, Using the “Dual Chamber In-Vitro Test”
Active Substance: Magnesium Ascorbyl Phosphate (MAP) (Vitamin C Derivative) […]

[1] = Iontophoretic System, 3% in distilled water, 25 mg applied, pH 7.0-7.4, 0.150 mA/cm^2, 30 minutes, individual cell
[2] = Iontophoretic System, 3%, 0.150 mA/cm^2, 30 minutes, Mean of 6 cells
[3] = Passive Control (without electrical current)

Amount of Active, Receptor (transferred through the skin) [2]: 43 µg and 43.15 µg | Amount of Active, TS # 1, 2 [2]: 73.77 µg | Amount of Active, TS # 3-15 [2]: 42.06 µg | Amount of Active, TS Total [2]: 115.82 µg | mean amount found in the receptor [3]: 2 µg | mean total amount found in tape strippings #1-15, compared with Iontophoretic System [3]: in the same order of magnitude
SMILES: O=C1O[C@H]([C@@H](O)CO)C([O-])=C1OP(=O)([O-])[O-].O=C1O[C@H]([C@@H](O)CO)C([O-])=C1OP(=O)([O-])[O-].[Mg+2].[Mg+2].[Mg+2] [MAP, Magnesium Ascorbyl Phosphate]
Amount of Active, Receptor [1]: 47.66 µg and 122.75 µg and 14.62 µg and 23.47 µg and 24.99 µg and 25.43 µg | Amount of Active, TS # 1, 2 [1]: 92.41 µg and 50.37 µg and 103.88 µg and 132.28 µg and 48.43 µg and 89.89 µg | Amount of Active, TS # 3-15 [1]: 89.22 µg and 2.94 µg and 115.27 µg and 43.90 µg and 8.71 µg and 50.43 µg | Amount of Active, TS Total [1]: 181.63 µg and 53.31 µg and 219.15 µg and 176.18 µg and 57.14 µg and 140.32 µg | Amount of Active, Viable Skin [1]: 33.94 µg and 4.55 µg and 56.67 µg and 8.44 µg and 19.24 µg and 10.30 µg | Total TS # 3-15 + Viable Skin [1]: 123.16 µg and 7.49 µg and 171.94 µg and 52.34 µg and 27.95 µg and 60.73 µg | Total TS # 3-15 + Viable skin [1]: 183.82 μg/cm2 and 11.18 μg/cm2 and 256.63 μg/cm2 and 78.12 μg/cm2 and 41.72 μg/cm2 and 10.89 μg/cm2 | Amount of Active, Viable Skin [2]: 23 µg and 23.07 µg | Total TS # 3-15 + Viable Skin (amount in the skin) [2]: 65 µg and 65.13 µg | Total TS # 3-15 + Viable skin [2]: 97.21 μg/cm2 | total amount found in the skin (TS#1-15+ Viable skin) (Iontophoretic System, 3%, 0.150 mA/cm^2, 30 minutes, mean): 139 µg | mean amount found in the viable skin [3]: 1 µg

— patent US7979117B2, “Device and method for controlled delivery of active substance into the skin” (Power Paper Ltd., priority 2001, dated 2011)
